Assays:
[1] = xn = mol fraction of the nth substance listed; conditions: 101 kPa, Liquid
[2] = refractive index (Na D-line) (dimensionless); xn = mol fraction of the nth substance listed; conditions: 101 kPa, Liquid

CCOC(=O)C(=O)OCC [diethyl ethanedioate] + COc1ccccc1
Conditions	mass density, 298.15 K [kg/m3]	mass density, 303.15 K [kg/m3]	mass density, 308.15 K [kg/m3]	refractive index, 298.15 K	refractive index, 303.15 K	refractive index, 308.15 K	speed of sound, 298.15 K [m/s]	viscosity, 298.15 K [mPa·s]	viscosity, 303.15 K [mPa·s]	viscosity, 308.15 K [mPa·s]
[1], x2 = 0	1072.3	1066.6	1060.7	–	–	–	1267	1.844	1.659	1.508
[1], x2 = 0.1017	1065.8	1060.1	1054.3	–	–	–	1280	1.732	1.578	1.424
[1], x2 = 0.1976	1059.5	1053.8	1048.1	–	–	–	1293	1.64	1.497	1.354
[1], x2 = 0.2978	1052.6	1047.1	1041.4	–	–	–	1307	1.55	1.416	1.282
[1], x2 = 0.3621	1047.7	1042.3	1036.7	–	–	–	1316	1.495	1.367	1.239
[1], x2 = 0.4971	1037.4	1031.9	1026.5	–	–	–	1334	1.38	1.265	1.149
[1], x2 = 0.5975	1029.1	1023.8	1018.5	–	–	–	1348	1.301	1.195	1.089
[1], x2 = 0.6977	1020.1	1014.9	1009.7	–	–	–	1362	1.223	1.126	1.03
[1], x2 = 0.8016	1010.1	1005.3	1000	–	–	–	1377	1.14	1.054	0.968
[1], x2 = 0.9007	999.9	995.4	990.2	–	–	–	1393	1.061	0.985	0.91
[2], x2 = 0	–	–	–	1.4084	1.4061	1.4039	–	–	–	–
[2], x2 = 0.1017	–	–	–	1.4171	1.4148	1.4124	–	–	–	–
[2], x2 = 0.1976	–	–	–	1.4257	1.4232	1.4207	–	–	–	–
[2], x2 = 0.2978	–	–	–	1.435	1.4325	1.43	–	–	–	–
[2], x2 = 0.3621	–	–	–	1.4412	1.4388	1.4362	–	–	–	–
[2], x2 = 0.4971	–	–	–	1.4551	1.4525	1.4499	–	–	–	–
[2], x2 = 0.5975	–	–	–	1.466	1.4634	1.4607	–	–	–	–
[2], x2 = 0.6977	–	–	–	1.4773	1.4746	1.4718	–	–	–	–
[2], x2 = 0.8016	–	–	–	1.4896	1.4868	1.484	–	–	–	–
[2], x2 = 0.9007	–	–	–	1.5021	1.4991	1.4962	–	–	–	–

CN(C)C=O [dimethylformamide] + COc1ccccc1
x2 = 0
Conditions	mass density, 298.15 K [kg/m3]	mass density, 303.15 K [kg/m3]	mass density, 308.15 K [kg/m3]	refractive index, 298.15 K	refractive index, 303.15 K	refractive index, 308.15 K	speed of sound, 298.15 K [m/s]	viscosity, 298.15 K [mPa·s]	viscosity, 303.15 K [mPa·s]	viscosity, 308.15 K [mPa·s]
[1]	943.9	939.5	935	–	–	–	1462	0.801	0.754	0.711
[2]	–	–	–	1.4288	1.4264	1.4238	–	–	–	–

C1COCCO1 [1,4-dioxane] + COc1ccccc1
x2 = 0
Conditions	mass density, 298.15 K [kg/m3]	mass density, 303.15 K [kg/m3]	mass density, 308.15 K [kg/m3]	refractive index, 298.15 K	refractive index, 303.15 K	refractive index, 308.15 K	speed of sound, 298.15 K [m/s]	viscosity, 298.15 K [mPa·s]	viscosity, 303.15 K [mPa·s]	viscosity, 308.15 K [mPa·s]
[1]	1028.3	1023.1	1017.8	–	–	–	1345	1.415	1.171	1.068
[2]	–	–	–	1.4181	1.4176	1.4141	–	–	–	–

COc1ccccc1 [anisole] + ClC(Cl)C(Cl)Cl
x1 = 1
Conditions	mass density, 298.15 K [kg/m3]	mass density, 303.15 K [kg/m3]	mass density, 308.15 K [kg/m3]	refractive index, 298.15 K	refractive index, 303.15 K	refractive index, 308.15 K	speed of sound, 298.15 K [m/s]	viscosity, 298.15 K [mPa·s]	viscosity, 303.15 K [mPa·s]	viscosity, 308.15 K [mPa·s]
[1]	988.9	984.1	979.4	–	–	–	1410	0.992	0.919	0.853
[2]	–	–	–	1.5148	1.5124	1.5092	–	–	–	–

COc1ccccc1 [anisole] + C[S+](C)[O-]
Conditions	mass density, 298.15 K [kg/m3]	mass density, 303.15 K [kg/m3]	mass density, 308.15 K [kg/m3]	refractive index, 298.15 K	refractive index, 303.15 K	refractive index, 308.15 K	speed of sound, 298.15 K [m/s]	viscosity, 298.15 K [mPa·s]	viscosity, 303.15 K [mPa·s]	viscosity, 308.15 K [mPa·s]
[1], x1 = 0.0938	1081.5	1077	1072.3	–	–	–	1487	1.836	1.683	1.529
[1], x1 = 0.2016	1066.7	1062.1	1057.6	–	–	–	1477	1.691	1.549	1.407
[1], x1 = 0.3025	1054.4	1049.9	1045.3	–	–	–	1468	1.565	1.438	1.31
[1], x1 = 0.3987	1043.6	1039.2	1034.7	–	–	–	1462	1.466	1.347	1.228
[1], x1 = 0.5074	1032.5	1027.9	1023.6	–	–	–	1454	1.369	1.268	1.166
[1], x1 = 0.594	1024.1	1019.7	1015.1	–	–	–	1445	1.318	1.219	1.119
[1], x1 = 0.6956	1014.7	1010.3	1005.7	–	–	–	1437	1.249	1.152	1.054
[1], x1 = 0.7988	1005.5	1001.4	996.7	–	–	–	1428	1.157	1.073	0.989
[1], x1 = 0.8933	997.4	992.8	988.5	–	–	–	1421	1.077	1.004	0.931
[1], x1 = 1	988.9	984.1	979.4	–	–	–	1410	0.992	0.919	0.853
[2], x1 = 0.0938	–	–	–	1.4817	1.4772	1.4727	–	–	–	–
[2], x1 = 0.2016	–	–	–	1.4878	1.4853	1.4828	–	–	–	–
[2], x1 = 0.3025	–	–	–	1.4929	1.4901	1.4873	–	–	–	–
[2], x1 = 0.3987	–	–	–	1.4962	1.4935	1.4906	–	–	–	–
[2], x1 = 0.5074	–	–	–	1.4996	1.4974	1.4952	–	–	–	–
[2], x1 = 0.594	–	–	–	1.5031	1.5006	1.498	–	–	–	–
[2], x1 = 0.6956	–	–	–	1.5069	1.5043	1.5017	–	–	–	–
[2], x1 = 0.7988	–	–	–	1.5105	1.5075	1.5046	–	–	–	–
[2], x1 = 0.8933	–	–	–	1.5124	1.5096	1.5069	–	–	–	–
[2], x1 = 1	–	–	–	1.5148	1.5124	1.5092	–	–	–	–

— the NIST ThermoML archive (doi:10.1021/je049610v)
